# Assay results as given in US9579330B2, “Use and application regimen of a pharmaceutical composition containing levonorgestrel and a COX inhibitor for on-demand contraception” (priority 2012, dated 2017).
# Where two headings read alike, the source gives them in different places. Marks after values point to notes of the source that are not given here.
# How the values were obtained:
# [1] = tested on: fertility of female rats; assay: Rat fertility test: single application in pro oestrus, pairing, number of implantation sites; type: in vivo, Han Wistar rats
# Method: In the experiments below, female Han Wistar rats with a weight of 200-270 g were used. The animals were kept in Macrolon cages in rooms with controlled lighting (12 hours darkness: 12 hours lightness), fed with a standard diet and watered with water ad libitum. Levonorgestrel was dissolved in benzyl benzoate/castor oil (1+4 v/v) and the daily dose was applied in a volume of 1 ml/kg of body weight s.c. The COX inhibitors were suspended in a carrier liquid (85 mg Myrj®53 polyoxyl(50)stearate; CAS No. 9004-99-3) in 100 ml of 0.9% w/v NaCl solution) and the dose corresponding to the treatment group was administered orally in a volume of 2 ml/kg of body weight. Two cycles were observed using vaginal smears prior to the start of the experiment. […] Assignment to the treatment groups was random. The animals were treated once with the test substances either on their own or in combination in pro oestrus, the day in the cycle on which in the evening the LH peaked. On the evening of […] the female animals were paired with male rats. Successful pairing was tested the next morning by means of a vaginal sperm detection in the vaginal smear. The influence on the fertility was ascertained 9-15 days after the pairing via the number of implantation sites of the animals. The group size was n=6 animals per group.
# [2] = tested on: cervical secretion; conditions: clinical study; cited from earlier work
# [3] = tested on: ovulation of women; assay: Clinical phase IIa study: oral single dose of piroxicam after start of the LH increase, ovulation inhibition or delay; type: in vivo; conditions: for Time from LH increase to ovulation in the treatment cycle, average value / Time from LH increase to ovulation in the treatment cycle, median / Time from LH increase to ovulation in the treatment cycle, range: N = 16; for % of women who exhibited an at least plus 24 hour delay in ovulation / Number of women who exhibited an at least plus 24 hour delay in ovulation compared to the median time between LH increase and ovulation in the untreated previous cycle: N = 16, final evaluation set
# Method: In a clinical phase IIa study (monocentric, double blind, placebo controlled, randomized, parallel groups), piroxicam was administered to women of a fertile age in the dosages 20, 40 and 80 mg as an oral single dose. Overall, 72 women were treated, of which 18 women were given 20 mg, 17 women were given 40 mg, 20 women were given 80 mg of piroxicam and 17 women were given a placebo preparation. It was the aim of the study to investigate whether the oral single administration of piroxicam after the start of the LH increase has an effect on ovulation compared to the placebo in healthy young women. An ovulation inhibition or delay by at least plus 24 hours longer than the median duration between LH increase and ovulation in the untreated previous cycle of the study population was evaluated as the effect. For this purpose, transvaginal ultrasound investigations and hormone level measurements were carried out. Only women (n=64) without serious protocol deviations which could have influenced the study aim were included in the final study evaluation.
# Adapted Kaplan-Meier curve for depicting the ovulation delay following administration of piroxicam compared to the administration of a placebo preparation. The time after the LH increase is plotted on the X axis in days. […] The individual curves represent the individual treatment groups: placebo group (solid line); 20 mg of piroxicam (dotted line consisting of short strokes), 40 mg of piroxicam (dotted line consisting of long strokes) and 80 mg of piroxicam (dotted line consisting of alternating long and short strokes).
# [4] = tested on: fertility in humans; conditions: taken over a prolonged period for treating Bechterew's disease; cited from earlier work
# [5] = tested on: prostaglandin E2 (PEG2) synthesis in the ovaries
# [6] = Table 2.3, treatment at 17:00, LNG 0.5 mg/animal (n = 5), diclofenac 4 mg/animal
# [7] = Table 2.2, treatment at 17:00, LNG 0.5 mg/animal, indomethacin 1 mg/animal, combination n = 5
# [8] = Table 2.1, treatment at 7:00, LNG 0.5 mg/animal s.c., piroxicam 2 mg/animal oral, single application
# [9] = Table 2.1, treatment at 13:00, LNG 0.5 mg/animal s.c., piroxicam 2 mg/animal oral, single application
# [10] = Table 2.4, treatment at 17:00, LNG 0.5 mg/animal, ibuprofen 12.5 mg/animal
# [11] = Table 2.5, LNG 0.5 mg/animal at 17:00 (n = 5), naproxen 10 mg/animal at 20:00 (n = 4), combination 17:00
# [12] = Table 2.4, treatment at 17:00, ibuprofen 25 mg/animal alone or with LNG 0.5 mg/animal
# [13] = Table 2.5, naproxen 2 × 5 mg/animal at 17:00 and 20:00, alone or with LNG 0.5 mg/animal
structure (smiles),measurement,setting,value
"O=C(O)Cc1ccccc1Nc1c(Cl)cccc1Cl [Diclofenac, diclofenac]",Implantations per animal (average value ± SD),[1]; [6],3.7 ± 3.6
same,Sum of the implantation sites of 6 animals,[1]; [6],22
same,Effect on cervical secretion (in words),[2],reduction in cervical secretion
"COc1ccc2c(c1)c(CC(=O)O)c(C)n2C(=O)c1ccc(Cl)cc1 [Indomethacin, indomethacin]",Implantations per animal (average value ± SD),[1]; [7],4.8 ± 4.1
same,Sum of the implantation sites of 6 animals,[1]; [7],29
"C#C[C@]1(O)CC[C@H]2[C@@H]3CCC4=CC(=O)CC[C@@H]4[C@H]3CC[C@@]21CC [LNG, levonorgestrel]",Implantations per animal (average value ± SD),[1]; [8],8.3 ± 4.3
same,"Sum of the implantation site, of 6 animals",[1]; [8],50
same,Implantations per animal (average value ± SD),[1]; [9],5.3 ± 3.1
same,"Sum of the implantation site, of 6 animals",[1]; [9],32
same,Implantations per animal (average value ± SD),[1]; [7],7.5 ± 4.0
same,Sum of the implantation sites of 6 animals,[1]; [7],45
same,Implantations per animal (average value ± SD),[1]; [6],6.8 ± 5.9
same,Sum of the implantation sites of 6 animals,[1]; [6],34*
same,Implantations per animal (average value ± SD),[1]; [10],10.5 ± 4.5
same,Sum of the implantation sites of 6 animals,[1]; [10],63
same,Implantations per animal (average value ± SD),[1]; [11],7.8 ± 5.9
same,Sum of the implantation sites of 6 animals,[1]; [11],39*
"CN1C(C(=O)Nc2ccccn2)=C(O)c2ccccc2S1(=O)=O [Piroxicam, piroxicam]",Extension of the time (median) between LH increase and ovulation in the treatment cycle compared to the previous cycle,[3]; 20 mg oral single dose,17 h
same,"Time from LH increase to ovulation in the treatment cycle, average value",[3]; 20 mg oral single dose,133 h
same,"Time from LH increase to ovulation in the treatment cycle, median",[3]; 20 mg oral single dose,65 h
same,"Time from LH increase to ovulation in the treatment cycle, range",[3]; 20 mg oral single dose,38 to 416 h
same,% of women who exhibited an at least plus 24 hour delay in ovulation,[3]; 20 mg oral single dose,50.0%
same,Number of women who exhibited an at least plus 24 hour delay in ovulation compared to the median time between LH increase and ovulation in the untreated previous cycle,[3]; 20 mg oral single dose,8
same,Extension of the time (median) between LH increase and ovulation in the treatment cycle compared to the previous cycle,[3]; 40 mg oral single dose,15 h
same,"Time from LH increase to ovulation in the treatment cycle, average value",[3]; 40 mg oral single dose,121 h
same,"Time from LH increase to ovulation in the treatment cycle, median",[3]; 40 mg oral single dose,63 h
same,"Time from LH increase to ovulation in the treatment cycle, range",[3]; 40 mg oral single dose,37 to 384 h
same,% of women who exhibited an at least plus 24 hour delay in ovulation,[3]; 40 mg oral single dose,43.8%
same,Number of women who exhibited an at least plus 24 hour delay in ovulation compared to the median time between LH increase and ovulation in the untreated previous cycle,[3]; 40 mg oral single dose,7
same,Extension of the time (median) between LH increase and ovulation in the treatment cycle compared to the previous cycle,[3]; 80 mg oral single dose,228 h
same,"Time from LH increase to ovulation in the treatment cycle, average value",[3]; 80 mg oral single dose,219 h
same,"Time from LH increase to ovulation in the treatment cycle, median",[3]; 80 mg oral single dose,276 h
same,"Time from LH increase to ovulation in the treatment cycle, range",[3]; 80 mg oral single dose,48 to 386 h
same,% of women who exhibited an at least plus 24 hour delay in ovulation,[3]; 80 mg oral single dose,68.8%
same,Number of women who exhibited an at least plus 24 hour delay in ovulation compared to the median time between LH increase and ovulation in the untreated previous cycle,[3]; 80 mg oral single dose,11
same,Effect on ovulation compared to placebo (in words),"[3]; all three dose groups (20, 40, 80 mg)",more marked effect on ovulation than in the placebo group
same,Implantations per animal (average value ± SD),[1]; [8],9.5 ± 4.8
same,"Sum of the implantation site, of 6 animals",[1]; [8],57
same,Implantations per animal (average value ± SD),[1]; [9],10.0 ± 5.3
same,"Sum of the implantation site, of 6 animals",[1]; [9],60
"CC(C)Cc1ccc(C(C)C(=O)O)cc1 (stereo not drawn) [Ibuprofen, ibuprofen]",Implantations per animal (average value ± SD),[1]; [10],10.8 ± 3.2
same,Sum of the implantation sites of 6 animals,[1]; [10],65
same,Implantations per animal (average value ± SD),[1]; [12],11.3 ± 2.6
same,Sum of the implantation sites of 6 animals,[1]; [12],68
"COc1ccc2cc([C@H](C)C(=O)O)ccc2c1 [Naproxen, naproxen]",Effect on fertility in humans (in words),[4],antifertile effect
same,Implantations per animal (average value ± SD),[1]; [11],5.8 ± 4.4
same,Sum of the implantation sites of 6 animals,[1]; [11],23**
same,Implantations per animal (average value ± SD),[1]; [13],7.3 ± 3.6
same,Sum of the implantation sites of 6 animals,[1]; [13],44
same,Antifertile effect in the rat fertility test (in words),"[1]; single application, doses as in Tables 2.1-2.5",reduction in fertility
same,"Prostaglandin E2 in the ovaries, average value","[5]; sample at 18:00, 2 hours after oral 20 mg/kg naproxen (around 16:00)",12.9 pg/500 μg tissue
same,"Prostaglandin E2 in the ovaries, average value","[5]; sample at 20:00, 4 hours after oral 20 mg/kg naproxen (around 16:00)",32.1 pg/500 μg tissue
same,"Prostaglandin E2 in the ovaries, average value","[5]; sample at 22:00, 6 hours after oral 20 mg/kg naproxen (around 16:00)",72.4 pg/500 μg tissue
same,Prostaglandin E2 (PEG2) synthesis in the ovaries (in words),[5]; under the action of naproxen,reduced
